{"source": "the NIST ThermoML archive (doi:10.1021/je400783h)", "key": {"[1]": {"experiment": "refractive index (Na D-line) (dimensionless)", "details": "101.33 kPa, Liquid, Standard Abbe refractometry"}, "[2]": {"experiment": "relative permittivity at various frequencies (dimensionless)", "details": "101 kPa, Liquid, Frequency=2 MHz, capacitive measurement method"}}, "note": "Numbers after ± are expanded uncertainties."}
{"smiles": "OCC1CCCO1", "note": "(stereo unspecified) [2-tetrahydrofurylmethanol]", "values": [{"measurement": "refractive index", "setting": "[1]; 283.15 K", "result": "1.45646 ± 0.00037"}, {"measurement": "refractive index", "setting": "[1]; 285.65 K", "result": "1.45549 ± 0.00037"}, {"measurement": "refractive index", "setting": "[1]; 288.15 K", "result": "1.45452 ± 0.00037"}, {"measurement": "refractive index", "setting": "[1]; 290.65 K", "result": "1.45356 ± 0.00037"}, {"measurement": "refractive index", "setting": "[1]; 293.15 K", "result": "1.45259 ± 0.00037"}, {"measurement": "refractive index", "setting": "[1]; 295.65 K", "result": "1.45162 ± 0.00037"}, {"measurement": "refractive index", "setting": "[1]; 298.15 K", "result": "1.45063 ± 0.00037"}, {"measurement": "refractive index", "setting": "[1]; 300.65 K", "result": "1.44965 ± 0.00037"}, {"measurement": "refractive index", "setting": "[1]; 303.15 K", "result": "1.44867 ± 0.00037"}, {"measurement": "refractive index", "setting": "[1]; 305.65 K", "result": "1.44769 ± 0.00037"}, {"measurement": "refractive index", "setting": "[1]; 308.15 K", "result": "1.44671 ± 0.00037"}, {"measurement": "refractive index", "setting": "[1]; 310.65 K", "result": "1.44572 ± 0.00037"}, {"measurement": "refractive index", "setting": "[1]; 313.15 K", "result": "1.44473 ± 0.00037"}, {"measurement": "refractive index", "setting": "[1]; 315.65 K", "result": "1.44375 ± 0.00037"}, {"measurement": "refractive index", "setting": "[1]; 318.15 K", "result": "1.44274 ± 0.00037"}, {"measurement": "refractive index", "setting": "[1]; 320.65 K", "result": "1.44176 ± 0.00037"}, {"measurement": "refractive index", "setting": "[1]; 323.15 K", "result": "1.44072 ± 0.00037"}, {"measurement": "refractive index", "setting": "[1]; 325.65 K", "result": "1.4397 ± 0.00037"}, {"measurement": "refractive index", "setting": "[1]; 328.15 K", "result": "1.43871 ± 0.00037"}, {"measurement": "refractive index", "setting": "[1]; 330.65 K", "result": "1.43772 ± 0.00037"}, {"measurement": "refractive index", "setting": "[1]; 333.15 K", "result": "1.43668 ± 0.00037"}, {"measurement": "refractive index", "setting": "[1]; 335.65 K", "result": "1.43567 ± 0.00037"}, {"measurement": "refractive index", "setting": "[1]; 338.15 K", "result": "1.43466 ± 0.00037"}, {"measurement": "relative permittivity", "setting": "[2]; 278.15 K", "result": "15.2 ± 0.1"}, {"measurement": "relative permittivity", "setting": "[2]; 280.65 K", "result": "15 ± 0.1"}, {"measurement": "relative permittivity", "setting": "[2]; 283.15 K", "result": "15 ± 0.1"}, {"measurement": "relative permittivity", "setting": "[2]; 285.65 K", "result": "14.9 ± 0.1"}, {"measurement": "relative permittivity", "setting": "[2]; 288.15 K", "result": "14.8 ± 0.1"}, {"measurement": "relative permittivity", "setting": "[2]; 290.65 K", "result": "14.7 ± 0.1"}, {"measurement": "relative permittivity", "setting": "[2]; 293.15 K", "result": "14.6 ± 0.1"}, {"measurement": "relative permittivity", "setting": "[2]; 295.65 K", "result": "14.5 ± 0.1"}, {"measurement": "relative permittivity", "setting": "[2]; 298.15 K", "result": "14.4 ± 0.1"}, {"measurement": "relative permittivity", "setting": "[2]; 300.65 K", "result": "14.4 ± 0.1"}, {"measurement": "relative permittivity", "setting": "[2]; 303.15 K", "result": "14.3 ± 0.1"}, {"measurement": "relative permittivity", "setting": "[2]; 305.65 K", "result": "14.2 ± 0.1"}, {"measurement": "relative permittivity", "setting": "[2]; 308.15 K", "result": "14.1 ± 0.1"}, {"measurement": "relative permittivity", "setting": "[2]; 310.65 K", "result": "14 ± 0.1"}, {"measurement": "relative permittivity", "setting": "[2]; 313.15 K", "result": "13.9 ± 0.1"}, {"measurement": "relative permittivity", "setting": "[2]; 315.65 K", "result": "13.8 ± 0.1"}, {"measurement": "relative permittivity", "setting": "[2]; 318.15 K", "result": "13.8 ± 0.1"}, {"measurement": "relative permittivity", "setting": "[2]; 320.65 K", "result": "13.6 ± 0.1"}, {"measurement": "relative permittivity", "setting": "[2]; 323.15 K", "result": "13.5 ± 0.1"}, {"measurement": "relative permittivity", "setting": "[2]; 325.65 K", "result": "13.5 ± 0.1"}, {"measurement": "relative permittivity", "setting": "[2]; 328.15 K", "result": "13.4 ± 0.1"}, {"measurement": "relative permittivity", "setting": "[2]; 330.65 K", "result": "13.3 ± 0.1"}, {"measurement": "relative permittivity", "setting": "[2]; 333.15 K", "result": "13.2 ± 0.1"}, {"measurement": "relative permittivity", "setting": "[2]; 335.65 K", "result": "13.1 ± 0.1"}, {"measurement": "relative permittivity", "setting": "[2]; 338.15 K", "result": "13 ± 0.1"}]}
{"smiles": "Cc1ccc(C=O)o1", "note": "[5-methylfurfural]", "values": [{"measurement": "refractive index", "setting": "[1]; 283.15 K", "result": "1.5364 ± 0.00037"}, {"measurement": "refractive index", "setting": "[1]; 285.65 K", "result": "1.53529 ± 0.00037"}, {"measurement": "refractive index", "setting": "[1]; 288.15 K", "result": "1.53393 ± 0.00037"}, {"measurement": "refractive index", "setting": "[1]; 290.65 K", "result": "1.53269 ± 0.00037"}, {"measurement": "refractive index", "setting": "[1]; 293.15 K", "result": "1.53144 ± 0.00037"}, {"measurement": "refractive index", "setting": "[1]; 295.65 K", "result": "1.53019 ± 0.00037"}, {"measurement": "refractive index", "setting": "[1]; 298.15 K", "result": "1.5289 ± 0.00037"}, {"measurement": "refractive index", "setting": "[1]; 300.65 K", "result": "1.52765 ± 0.00037"}, {"measurement": "refractive index", "setting": "[1]; 303.15 K", "result": "1.5264 ± 0.00037"}, {"measurement": "refractive index", "setting": "[1]; 305.65 K", "result": "1.52513 ± 0.00037"}, {"measurement": "refractive index", "setting": "[1]; 308.15 K", "result": "1.52385 ± 0.00037"}, {"measurement": "refractive index", "setting": "[1]; 310.65 K", "result": "1.52257 ± 0.00037"}, {"measurement": "refractive index", "setting": "[1]; 313.15 K", "result": "1.5213 ± 0.00037"}, {"measurement": "refractive index", "setting": "[1]; 315.65 K", "result": "1.52 ± 0.00037"}, {"measurement": "refractive index", "setting": "[1]; 318.15 K", "result": "1.51872 ± 0.00037"}, {"measurement": "refractive index", "setting": "[1]; 320.65 K", "result": "1.51742 ± 0.00037"}, {"measurement": "refractive index", "setting": "[1]; 323.15 K", "result": "1.51615 ± 0.00037"}, {"measurement": "refractive index", "setting": "[1]; 325.65 K", "result": "1.51486 ± 0.00037"}, {"measurement": "refractive index", "setting": "[1]; 328.15 K", "result": "1.51357 ± 0.00037"}, {"measurement": "refractive index", "setting": "[1]; 330.65 K", "result": "1.51229 ± 0.00037"}, {"measurement": "refractive index", "setting": "[1]; 333.15 K", "result": "1.511 ± 0.00037"}, {"measurement": "refractive index", "setting": "[1]; 335.65 K", "result": "1.50972 ± 0.00037"}, {"measurement": "refractive index", "setting": "[1]; 338.15 K", "result": "1.50842 ± 0.00037"}, {"measurement": "relative permittivity", "setting": "[2]; 278.15 K", "result": "45.2 ± 0.2"}, {"measurement": "relative permittivity", "setting": "[2]; 280.65 K", "result": "44.5 ± 0.2"}, {"measurement": "relative permittivity", "setting": "[2]; 283.15 K", "result": "43.7 ± 0.2"}, {"measurement": "relative permittivity", "setting": "[2]; 285.65 K", "result": "43 ± 0.2"}, {"measurement": "relative permittivity", "setting": "[2]; 288.15 K", "result": "42.3 ± 0.2"}, {"measurement": "relative permittivity", "setting": "[2]; 290.65 K", "result": "41.6 ± 0.2"}, {"measurement": "relative permittivity", "setting": "[2]; 293.15 K", "result": "40.9 ± 0.2"}, {"measurement": "relative permittivity", "setting": "[2]; 295.65 K", "result": "40.2 ± 0.2"}, {"measurement": "relative permittivity", "setting": "[2]; 298.15 K", "result": "39.4 ± 0.2"}, {"measurement": "relative permittivity", "setting": "[2]; 300.65 K", "result": "38.7 ± 0.2"}, {"measurement": "relative permittivity", "setting": "[2]; 303.15 K", "result": "38 ± 0.2"}, {"measurement": "relative permittivity", "setting": "[2]; 305.65 K", "result": "37.2 ± 0.2"}, {"measurement": "relative permittivity", "setting": "[2]; 308.15 K", "result": "36.4 ± 0.2"}, {"measurement": "relative permittivity", "setting": "[2]; 310.65 K", "result": "35.8 ± 0.2"}, {"measurement": "relative permittivity", "setting": "[2]; 313.15 K", "result": "35.1 ± 0.2"}, {"measurement": "relative permittivity", "setting": "[2]; 315.65 K", "result": "34.4 ± 0.2"}, {"measurement": "relative permittivity", "setting": "[2]; 318.15 K", "result": "33.7 ± 0.2"}, {"measurement": "relative permittivity", "setting": "[2]; 320.65 K", "result": "33.6 ± 0.2"}, {"measurement": "relative permittivity", "setting": "[2]; 323.15 K", "result": "32.4 ± 0.2"}, {"measurement": "relative permittivity", "setting": "[2]; 325.65 K", "result": "31.7 ± 0.2"}, {"measurement": "relative permittivity", "setting": "[2]; 328.15 K", "result": "31.1 ± 0.2"}, {"measurement": "relative permittivity", "setting": "[2]; 330.65 K", "result": "30.4 ± 0.2"}, {"measurement": "relative permittivity", "setting": "[2]; 333.15 K", "result": "29.8 ± 0.2"}, {"measurement": "relative permittivity", "setting": "[2]; 335.65 K", "result": "29.1 ± 0.2"}, {"measurement": "relative permittivity", "setting": "[2]; 338.15 K", "result": "28.4 ± 0.2"}]}
